# Laboratory results as given in paper PMC12228513 (Journal of the American Chemical Society, 2025).
# Biological target: T1, AlnA (Streptomyces sp. CM020, UniProt B6SEG5)
# T1 sequence (B6SEG5 1-306): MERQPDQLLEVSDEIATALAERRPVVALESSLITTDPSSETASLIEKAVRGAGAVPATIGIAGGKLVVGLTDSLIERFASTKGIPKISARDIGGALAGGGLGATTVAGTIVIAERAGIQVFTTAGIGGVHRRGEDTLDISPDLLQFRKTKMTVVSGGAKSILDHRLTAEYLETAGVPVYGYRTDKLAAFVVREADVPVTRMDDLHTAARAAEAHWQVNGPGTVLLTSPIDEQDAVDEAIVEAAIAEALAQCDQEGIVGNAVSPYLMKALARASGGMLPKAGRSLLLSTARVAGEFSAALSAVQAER
# Assay: protein mass spectrometry after NaBH4 trapping
# Type: binding
# Settings: covalent; Schiff base at Lys159
smiles,measurement,value
"O=P(O)(O)OC[C@H]1OC(O)[C@H](O)[C@@H]1O (stereo partly shown) [compound 4, ribose 5-phosphate]",protein mass spectrometry after NaBH4 trapping; tryptic proteolysis,the covalent modification occurred at the highly conserved Lys159 residue in AlnA
